Reference: patent US20220184054A1, “ANTI-VIRAL ACTIVITY OF VPS34 INHIBITORS” (priority 2020, published 2022)
Where two headings read alike, the source gives them in different places.

Columns and labels:
[1] = test system: SARS CoV-2 (USA_WA1/2020); experiment: SARS CoV-2 CPE assay for antiviral activity (Vero E6 host cells, Cell Titer-Glo); type: cell-based; details: read-out: IC50 for inhibition of SARS CoV-2 mediated cell killing
[2] = Compound cytotoxicity (CC50) counter screen in Vero E6 cells; type: cell-based; details: African green monkey, read-out: CC50 (general cytotoxic effects in Vero E6 cells)
Experimental: Compound cytotoxicity (CC50) is assessed in a BSL-2 counter screen as follows: Host cells in media are added in 25 μl aliquots (4000 cells/well) to each well of assay ready plates prepared with test compounds as above. Cells only (100% viability) and cells treated with hyamine at 100 μM final concentration (0% viability) serve as the high and low signal controls, respectively, for cytotoxic effect in the assay. DMSO is maintained at a constant concentration for all wells (0.3%) as dictated by the dilution factor of stock test compound concentrations. After incubating plates at 37° C./5% CO2 and 90% humidity for 72 hours, 30 μl Cell Titer-Glo (Promega) is added to each well. Luminescence is read using a BMG PHERAstar plate reader following incubation at room temperature for 10 minutes to measure cell viability.

SARS-CoV-2 = experiment: microbe, parasite or virus in culture; type: cell-based; details: Severe acute respiratory syndrome coronavirus 2, A549, 48 h; read-out: IC50 for inhibition of SARS CoV-2 mediated cell killing
in vitro = details: human
[3] = Vero C1008, Vero E6 cells, 10-point dose response, high concentration 15 μM, 72 hours

Structure (SMILES) | IC50 [1, 3] [nM] | CC50 at 72 h [2] [nM] | IC50 (SARS-CoV-2) [nM] | CC50 (in vitro) [nM] | IC50 ([1]; Vero C1008, 72 h) [nM]
O=c1cc(-c2ccnc3[nH]ncc23)cc(N2CCCCC2C(F)(F)F)[nH]1 (stereo not shown) [Compound 1] | 470 | 15000 | 510 | 8000 | –
N#Cc1cc2c(-c3cc(-c4ccccc4C(F)(F)F)[nH]c(=O)c3)ccnc2[nH]1 [Compound 2] | 3010 | > 10000 | 1570 | > 10000 | –
O=c1cc(-c2ccnc3[nH]c(C4CC4)cc23)cc(N2CCCCC2C(F)(F)F)[nH]1 (stereo not shown) [Compound 3] | 114 | 2830 | 29 | 482 | –
Cc1ccc(-c2cc3c(-c4cc(N5CCOCC5C(F)(F)F)[nH]c(=O)c4)ccnc3[nH]2)s1 (stereo not shown) [Compound 4] | – | 1430 | 158 | 411 | 1040
